Assay results: US20240325321A1, “COMPOSITIONS AND METHODS FOR INHIBITING PLpro PROTEASE ACTIVITY AND FOR PREVENTING AND TREATING SARS-CoV-2 INFECTION” (Arizona Board of Regents on Behalf of the University of …, priority 2022, published 2024)
Read-outs that look alike come from different tables or passages of the source.

What was measured:
SARS-CoV-2 PL^pro = SARS-CoV-2 PL^pro (Severe acute respiratory syndrome coronavirus 2, UniProt P0DTD1); assay: biochemical; type: biochemical
in vitro = conditions: African green monkey
SARS-CoV-2 [1] = assay: SARS-CoV-2 antiviral assay in Huh7-ACE2 cells; type: cell-based; conditions: Severe acute respiratory syndrome coronavirus 2
[2] = Cytotoxicity in Vero E6 cells; conditions: African green monkey
SARS-CoV-2 [3] = assay: SARS-CoV-2 antiviral assay in Vero E6 cells; type: cell-based; conditions: Severe acute respiratory syndrome coronavirus 2, Vero C1008
SARS-CoV-2 [4] = assay: SARS-CoV-2 antiviral assay in Caco2-hACE2 cells; type: cell-based; conditions: Severe acute respiratory syndrome coronavirus 2
M^pro = target: T1, M^pro (Severe acute respiratory syndrome coronavirus 2, UniProt P0DTD1); assay: biochemical
T1 construct: the main protease (M^pro)

[5] = Cytotoxicity in Calu-3 cells; conditions: human
[6] = FRET assay, read-out: SARS-CoV-2 PL^pro IC50

Row | Structure (SMILES) | IC50 (SARS-CoV-2 PL^pro) [µM] | IC50 (SARS-CoV-2 PL^pro; [6]) [µM] | other results
1 | C[C@H](c1cccc2ccccc12)N(C)Cc1ccnc(O)c1 [Jun9-84-6] | > 20 | – | –
2 | COc1ccc(Cl)c(CN(C)[C@H](C)c2ccccc2C)c1 [Jun9-25-4] | – | 49.3 | –
3 | Cc1ccc(C(C)N(C)Cc2cc(O)ccc2Cl)cc1 (stereo not shown) [Jun9-13-8] | – | 71.8 | –
4 | CC(C)c1ccccc1N(C)Cc1cc(O)ccc1Cl [Jun9-29-3] | > 20 | – | –
5 | C[C@H](c1cccc2ccccc12)N(C)Cc1ccc(O)cc1Cl [Jun9-87-3] | – | – | CC50 (in vitro): 26 µM; SARS-CoV-2 PL^pro inhibition, in words (SARS-CoV-2 PL^pro): highly potent
6 | CC1CCCCC1N(C)Cc1cc(O)ccc1Cl (stereo not shown) [Jun9-29-1] | > 20 | – | –
7 | CC(c1cccc(O)c1)N(C)Cc1cc(O)ccc1Cl (stereo not shown) [Jun9-29-6] | – | 26.9 | –
8 | Cc1ccccc1[C@@H](C)N(C)Cc1cc(O)ccc1Cl [Jun9-25-5] | – | – | EC50 (SARS-CoV-2 [1]): 3.1 µM; CC50 [2]: 38.8 µM
9 | CC(c1ccccc1F)N(C)Cc1cc(O)ccc1Cl (stereo not shown) [Jun9-29-7] | – | 42.9 | –
10 | C[C@H](c1cccc2ccccc12)N(C)Cc1n[nH]c2cccc(O)c12 [Jun9-86-7] | > 20 | – | –
11 | C[C@H](c1cccc2ccccc12)N(C)Cc1cccnc1 [ZX-136-2] | – | 9.29 | –
12 | CN(Cc1cc(O)ccc1Cl)Cc1c(Cl)cccc1Cl [Jun9-29-4] | > 20 | – | –
13 | Cc1cc(O)ccc1CN(C)[C@H](C)c1cccc2ccccc12 [Jun9-87-2] | – | – | CC50 (in vitro): 61 µM; SARS-CoV-2 PL^pro inhibition, in words (SARS-CoV-2 PL^pro): highly potent
14 | C[C@H](c1cccc2ccccc12)N(C)Cc1ccc(-n2cccc2)cc1 [ZX-136-4] | > 20 | – | –
15 | C[C@H](c1cccc2ccccc12)N(C)Cc1ccc2cccc(O)c2c1 [Jun9-85-8] | – | > 20 | –
16 | C[C@H](c1cccc2ccccc12)N(C)Cc1cnccn1 [ZX-136-9] | > 20 | – | –
17 | Cc1ccc(N)cc1C(=O)N[C@H](C)c1cccc2ccccc12 [GRL0617, reference compound] | – | – | EC50 (SARS-CoV-2 [1]): 20.2 µM; EC50 (SARS-CoV-2 [3]): 74.4 µM; EC50 (SARS-CoV-2 [4]): 25.1 µM
18 | C[C@@H](NC(=O)c1cc(O)ccc1Cl)c1cccc2ccccc12 [Jun9-47-2] | – | 6.72 | IC50 (M^pro): > 20 µM
19 | Cc1ccccc1CN(C)Cc1cc(O)ccc1Cl [Jun9-26-2] | > 20 | – | –
20 | C[C@H](c1cccc2ccccc12)N(C)Cc1cnn(C)c1 [ZX-136-3] | – | 10.1 | –

Row | Structure (SMILES) | IC50 (SARS-CoV-2 PL^pro) [µM] | IC50 (SARS-CoV-2 PL^pro; [6]) [µM] | other results
21 | Cc1ccc(S(N)(=O)=O)cc1C(=O)N(C)C(C)c1ccc(Cl)c2ccccc12 (stereo not shown) [Jun 10-69-2] | – | – | SARS-CoV-2 PL^pro inhibition, in words (SARS-CoV-2 PL^pro): highly potent
22 | C[C@H](c1cccc2ccccc12)N(C)Cc1ccc(O)cc1 [Jun9-44-3] | – | – | CC50 [5]: 27.7 µM; EC50 (SARS-CoV-2 [3]): 11.2 µM; EC50 (SARS-CoV-2 [4]): 8.32 µM; SARS-CoV-2 PL^pro inhibition, in words (SARS-CoV-2 PL^pro): highly potent
23 | C[C@H](c1cccc2ccccc12)N(C)Cc1cnc2c(O)cccn12 [ZX-136-10] | – | 14.3 | –
24 | CC(C1CC(F)CCC1F)N(C)Cc1cc(O)ccc1Cl (stereo not shown) [Jun9-29-5] | – | > 20 | –
25 | C[C@H](c1cccc2ccccc12)N(C)Cc1ccc2c(c1)COC2=O [Jun9-85-7] | – | 6.41 | –
26 | C[C@H](c1cccc2ccccc12)N(C)Cc1cnc(N)cc1N [Jun9-84-7] | – | 5.62 | –
27 | COc1ccc(Cl)c(CN(C)[C@H](C)c2cccc3ccccc23)c1 [Jun9-26-5] | > 20 | – | –
28 | C[C@H](c1cccc2ccccc12)N(C)Cc1cc(N)ccc1Cl [Jun9-53-1] | – | 2.71 | IC50 (M^pro): > 20 µM
29 | C[C@H](c1ccc(Cl)cc1)N(C)Cc1cc(O)ccc1Cl [Jun9-13-4] | > 20 | – | –
30 | Cc1ccc(O)cc1C(=O)N[C@H](C)c1cccc2ccccc12 [Jun9-47-3] | – | 2.44 | IC50 (M^pro): > 20 µM
31 | C[C@H](c1cccc2ccccc12)N(C)Cc1cncn1C [ZX-136-5] | – | 8.32 | –
32 | C[C@H](c1cccc2ccccc12)N(C)Cc1ccc2c(c1)NC(=O)CO2 [Jun9-86-3] | – | 7.01 | –
33 | CC(C1CCCCC1)N(C)Cc1cc(O)ccc1Cl (stereo not shown) [Jun9-13-6] | > 20 | – | –
34 | Cc1ccc(N)cc1CN(C)[C@H](C)c1cccc2ccccc12 [Jun9-53-2] | – | – | IC50 (M^pro): > 20 µM; EC50 (SARS-CoV-2 [3]): 25.2 µM; EC50 (SARS-CoV-2 [4]): 8.89 µM; CC50 [2]: 25.7 µM; SARS-CoV-2 PL^pro inhibition, in words (SARS-CoV-2 PL^pro): highly potent
35 | C[C@H](c1cccc2ccccc12)N(C)C(=O)c1nccnc1N [ZX-129] | – | > 20 | IC50 (M^pro): > 20 µM
36 | Oc1ccc(Cl)c(CN2CCc3ccccc3C2)c1 [Jun9-44-5] | > 20 | – | –
37 | C[C@H](c1cccc2ccccc12)N(C)Cc1cc(O)ccc1Cl [Jun9-28-6] | – | 2.66 | EC50 (SARS-CoV-2 [1]): 5.17 µM; IC50 (M^pro): > 20 µM
38 | CCN(Cc1cc(O)ccc1Cl)c1cccc(C)c1C [Jun9-13-5] | > 20 | – | –
39 | Cc1cc(O)cc(C)c1CN(C)[C@H](C)c1cccc2ccccc12 [Jun9-86-6] | – | 0.37 | –
40 | C[C@H](c1cccc2ccccc12)N(C)Cc1ccc(OCC(N)=O)nc1 [Jun9-85-4] | – | 2.84 | –
